Patent publication US20260200923A1, “HETEROCYCLIC COMPOUNDS TARGETING THE NUDT5 PROTEIN” (Oxford University Innovation Limited, priority 2022, published 2026)

Key:
NUDT5 = NUDT5 (Homo sapiens, UniProt Q9UKK9); experiment: AMP-Glo catalytic assay, NUDT5; format: biochemical; conditions: 2 nM NUDT5, ADPr substrate, 20 minutes, mean±SD
Experimental: (§1) To identify alternative X groups, a screening exercise was performed. […] Inhibition activities of the compounds were determined using AMP-Glo system (Promega). The compounds were diluted from 50 μM to 0 μM in a final reaction containing 20 mM Hepes, 100 mM NaCl, 0.5 mM TCEP, 1 mM MgCl2 and 0.1% BSA, pH 7.4. The reactions were performed in 1536 well plate in […] reaction volume with 2 nM of NUDT5 and NUDT14, and […] of ADPr as the substrate. The final DMSO concentration was 0.5% for all reactions. NUDT5 reactions were incubated for 20 minutes while NUDT14 reactions were carried out for 1 hour at room temperature. […] The reactions were further incubated with the 4 μl of Detection solution for 1 hour at room temperature. Luminescence signals were then measured in PHERAstar FSX plate reader. Experiments were done in triplicate sets and data were analysed by GraphPad Prism 9. Data are represented as the mean±SD of three biological experiments: […]

NUDT14 = biological target: T1, NUDT14 (Homo sapiens, UniProt O95848); experiment: AMP-Glo catalytic assay, NUDT14; format: biochemical
T1 sequence (O95848 1-222): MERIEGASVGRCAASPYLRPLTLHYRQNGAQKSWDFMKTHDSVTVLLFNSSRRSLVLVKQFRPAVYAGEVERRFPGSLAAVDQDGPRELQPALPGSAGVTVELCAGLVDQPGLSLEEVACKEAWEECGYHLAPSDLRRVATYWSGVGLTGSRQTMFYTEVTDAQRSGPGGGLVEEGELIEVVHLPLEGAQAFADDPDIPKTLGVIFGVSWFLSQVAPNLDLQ
Experimental: as §1

MTHFD1^K386E cells = experiment: growth of MTHFD1^K386E cells with adenosine; format: cell-based; conditions: synthetase mutant cells
Experimental: HAP1 (KBM7-derived, Horizon Discovery, […]), and HAP1 MTHFD1^KO, MTHFD1^[…], and MTHFD1^[…] cell lines were cultured in Iscove's Modified Dulbecco's Medium (IMDM, Sigma), supplemented with 10% Fetal Bovine Serum (FBS, Sigma) and 1% Penicillin/Streptomycin (P/S, Sigma).

MTHFD1^K56R cells = experiment: growth of MTHFD1^K56R cells in adenosine-containing media; format: cell-based
Experimental: HAP1 (KBM7-derived, Horizon Discovery, C859), and HAP1 MTHFD1^KO, MTHFD1^K56R, and MTHFD1^K386E cell lines were cultured in Iscove's Modified Dulbecco's Medium (IMDM, Sigma), supplemented with 10% Fetal Bovine Serum (FBS, Sigma) and 1% Penicillin/Streptomycin (P/S, Sigma).
MTHFD1^KO cells in dialyzed FBS media were treated with a single nucleotide or folic acid metabolite for 72 hours. Cells were then stained with Hoechst, imaged, and counted using an Operetta (Perkin Elmer). For the AMPK activator studies, cells were stained with Hoechst, imaged, and counted using an Opera (Perkin Elmer). Similarly, MTHFD1^K56R cells in dialyzed FBS media were treated with adenosine for 72 hours. Cells were then stained with Hoechst, imaged, and counted using an Operetta (Perkin Elmer).

HAP-1 cells = experiment: 6-thioguanine assay (CellTiter-Glo viability); format: cell-based; conditions: 0.2 μg/ml 6-thioguanine, 72 h; HAP1 (and NB4, FIG. 11)
Experimental: NB-4 and HAP1 cells (1000 cells/well in 40 uL) were seeded onto a 384-well plate containing compounds. DMSO or 0.2 μg/ml 6-thioguanine (A4882, Sigma-Aldrich) was added into respective wells. After 72 h incubation cell viability was measured by using CellTiter-Glo 2.0 Assay (G9242, Promega). Compounds in the 384-well plates were prepared by using Echo Acoustic Dispenser.

luciferase-tagged NUDT5 = biological target: T2, luciferase-tagged NUDT5 (Homo sapiens, UniProt Q9UKK9); experiment: NanoBRET target engagement assay; format: cell-based; conditions: live cells, 2 h
T2 construct: expressed in transfected cells; host or cells: HEK293T
Experimental: For NanoBRET target engagement assay, intracellular TE Nano-Glo substrate/inhibitor (N2161, Promega) was used according to the manufacturer's instruction. In brief, 200,000 HEK293T cells/ml was seeded in a T-75 flask. N-terminal NanoLuciferse NUDT5 was reverse transfected into the cells using Fugene HD transfection reagent (E2312, Promega). After 24 h the transfected HEK293 (200,000 cells/ml) were replated onto a 384-well plate containing compounds. 2.5 nM NU008116a was used as the final tracer concentration. After 2 h, NanoLuc substrate and inhibitor was added into each well and the signals were measured by PHERAstar Microplate Reader.
Compounds were dispensed in the 384-well plates by using Echo Acoustic Dispenser.

Molecule C=CC(=O)N1CCC[C@@H](n2nc(-c3ccc(Oc4ccccc4)cc3)c3c(N)ncnc32)C1 [Ibrutinib, reference compound] has an IC50 (NUDT5) of 375 ± 12 nM and an IC50 (NUDT14) of 974 ± 26 nM.
For Nc1ncnc2c1ncn2[C@@H]1O[C@H](CO)[C@@H](O)[C@H]1O [adenosine], the “effect of addition on growth” value (MTHFD1^K386E cells) was “enhanced the growth” and the “effect of addition on proliferation” value (MTHFD1^K56R cells; cyclohydrolase mutant cells, 50 μM adenosine) was “caused a strong antiproliferative response”.
CN1C(=O)CCC(N2C(=O)c3ccc(N4CCN(CC5CCN(C(=O)N6CCN(c7nc8c(c(=O)n(C)c(=O)n8C)n7Cc7nnc(-c8ccc(Cl)c(Cl)c8)o7)CC6)CC5)CC4)cc3C2=O)C1=O (stereo not shown) [dNUDT5nc, 7-((5-(3,4-dichlorophenyl)-1,3,4-oxadiazol-2-yl)methyl)-1,3-dimethyl-8-(4-(4-((4-(2-(1-methyl-2,6-dioxopiperidin-3-yl)-1,3-dioxoisoindolin-5-yl)piperazin-1-yl)methyl)piperidine-1-carbonyl)piperazin-1-yl)-3,7-dihydro-1H-purine-2,6-dione] was tested, and the “rescue of 6-TG toxicity” value (HAP-1 cells) was “neither the negative control nor TH5427 gave any significant effects”, the “effect on adenosine toxicity / viability” value (MTHFD1^K56R cells; adenosine-containing media, 72 h) was “did not cause any effects” and the “NUDT5 engagement / recruitment” value (luciferase-tagged NUDT5) was “engaged their cognate target NUDT5 in live cells”.
